Tests used:
Format in all cases: cell-based
[1] = tested on: COX-2; experiment: Anti-inflammatory activity: LPS-induced COX-2 expression (Western blotting)
Description: (§1) Compounds were evaluated for their efficacy in suppressing microglial immune activation by measuring their potency against LPS-induced expression of iNOS and COX-2 and IL-6 secretion. Microglia and Raw 264.7 cells (a microglia-like cell line) were pretreated with a test compound at various doses for 1 hr followed by 24 hr treatment of LPS (10 ng/ml). Cell lysates were subjected to Western blotting for iNOS and COX-2 evaluation. IL-6 secretion was measured from resulting culture medium by ELISA.

[2] = tested on: iNOS; experiment: Anti-inflammatory activity: LPS-induced iNOS expression (Western blotting)
Description: as §1

[3] = tested on: IL-6; experiment: Anti-inflammatory activity: LPS-induced IL-6 secretion (ELISA)
Description: as §1

[4] = tested on: Microglia; experiment: Enhancement of microglial Aβ clearance and phagocytosis in vitro; details: n=6, p<0.001
Description: Compounds were evaluated for their efficacy in enhancing microglial phagocytosis of Aβ (or Aβ clearance). […] Lipopolysaccharide (LPS) at 10 ng/mL was added as a positive control, which is known to increase Aβ uptake. The culture medium was subjected to Western blotting for evaluating residual Aβ left in the medium. The mean values of fluorescent intensity measured by flow cytometer were compared between cells pretreated with the test compound and the ones in non-treated controls.

[5] = tested on: Hippocampal organotypic cultures; experiment: Neuro-protection against LPS toxicity in hippocampal organotypic cultures; details: pre-treatment, then LPS 10 ng/mL for 24 hr; Western blotting
Description: Compounds were evaluated for their efficacy in suppressing microglia-mediated neurotoxicity. Hippocampal organotypic cultures were established to serve as an ex vivo model for evaluation of hippocampal functions. Pre-treatment of the cultures with a test compound was followed by addition of LPS (10 ng/mL) for 24 hr. Hippocampal tissues were harvested and subjected to Western blotting for measuring synaptophysin and post synaptic density protein (PSD)95 levels, the indications for neuronal synatic functions.

[6] = dose dependent, β-actin unchanged

NC(=S)Nc1cccc(OCCCCCNC(=S)Nc2cccc3ccccc23)c1 [Compound 1, 1-naphthalen-1-yl-3-[5-(3-thioureido-phenoxy)-pentyl]-thiourea]
IC50 ([1]; Mus musculus, RAW264.7, 1 hr pretreatment, then LPS 10 ng/ml for 24 hr, microglia and Raw 264.7 cells, read-out: Effective dose to show at least 50% suppression (IC50) for COX-2): 50 µM | LPS-induced COX-2 expression [1, 6]: significant suppression | IC50 ([2]; Mus musculus, RAW264.7, 1 hr pretreatment, then LPS 10 ng/ml for 24 hr, microglia and Raw 264.7 cells, read-out: Effective dose to show at least 50% suppression (IC50) for iNOS): 1 µM | LPS-induced iNOS expression [2, 6]: significant suppression | IC50 ([3]; 1 hr pretreatment, then LPS 10 ng/ml for 24 hr, secretion by microglia, read-out: Effective dose to show at least 50% suppression (IC50) for IL-6): 20 µM | LPS-induced IL-6 secretion by microglia ([3]; dose dependent): inhibited | increase of Aβ uptake as compared to the controls ([4]; compound at 10 μM): approximately 29% | increase of Aβ uptake as compared to the controls ([4]; compound at 20 μM): ~44% | increase of Aβ uptake as compared to the controls ([4]; compound at 50 μM): ~128% | LPS-induced reduction of PSD95 level [5]: prevented LPS-induced reduction | LPS-induced reduction of synaptophysin level [5]: prevented LPS-induced reduction
